Results: ChEMBL document CHEMBL1131038, “Derivatives of the triazoloquinazoline adenosine antagonist (CGS 15943) having high potency at the human A2B and A3 receptor subtypes” (J Med Chem, 1998)

Experiments:
Adenosine receptor A2a = Adenosine receptor A2a (Rattus norvegicus, UniProt P30543); assay: Binding affinity was determined in radioligand binding assay at rat striatal Adenosine A2A receptor vs [3H]-CGS- 21680
[1] = Ratio against rat A2A receptor and Human A3 receptor
[2] = Ratio against rat A1 receptor and Human A3 receptor
Adenosine receptor A1 = target: T1, Adenosine receptor A1 (Rattus norvegicus, UniProt P25099)
T1 sequence (P25099 whole entry): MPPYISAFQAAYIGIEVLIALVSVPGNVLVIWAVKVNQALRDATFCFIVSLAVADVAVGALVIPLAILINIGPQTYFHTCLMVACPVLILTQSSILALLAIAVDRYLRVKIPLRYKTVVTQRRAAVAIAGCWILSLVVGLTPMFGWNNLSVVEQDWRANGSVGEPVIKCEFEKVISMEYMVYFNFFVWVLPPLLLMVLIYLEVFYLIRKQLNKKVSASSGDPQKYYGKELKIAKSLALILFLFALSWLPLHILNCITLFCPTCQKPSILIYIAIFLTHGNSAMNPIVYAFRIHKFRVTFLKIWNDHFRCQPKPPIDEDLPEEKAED
Description: Binding affinity was determined in radioligand binding assay at rat brain adenosine A1 receptor vs [3H]R-PIA

Adenosine receptor A3 = target: T2, Adenosine receptor A3 (Homo sapiens, UniProt P0DMS8); assay: biochemical
T2 sequence (P0DMS8 whole entry): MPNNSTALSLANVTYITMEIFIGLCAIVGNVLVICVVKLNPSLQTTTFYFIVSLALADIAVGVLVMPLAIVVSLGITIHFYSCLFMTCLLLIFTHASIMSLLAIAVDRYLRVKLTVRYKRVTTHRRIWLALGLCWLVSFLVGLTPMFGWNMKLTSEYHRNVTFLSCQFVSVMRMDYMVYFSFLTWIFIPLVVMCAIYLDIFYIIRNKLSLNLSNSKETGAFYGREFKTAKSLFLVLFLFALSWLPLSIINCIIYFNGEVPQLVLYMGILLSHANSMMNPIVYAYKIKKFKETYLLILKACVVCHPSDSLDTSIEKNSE
Description: Binding affinity at cloned human adenosine A3 receptor expressed in HEK293 cells was determined using [125I]AB-MECA as radioligand

[3] = target: T3, Adenosine receptor A2b (Homo sapiens) (UniProt P29275); assay: Inhibition at 50 uM on cAMP production induced by 50 uM 5`-(N-ethylcarboxamido)adenosine in CHO cell line transfected with human Adenosine A2B receptor cDNA; type: cell-based
T3 sequence (whole entry): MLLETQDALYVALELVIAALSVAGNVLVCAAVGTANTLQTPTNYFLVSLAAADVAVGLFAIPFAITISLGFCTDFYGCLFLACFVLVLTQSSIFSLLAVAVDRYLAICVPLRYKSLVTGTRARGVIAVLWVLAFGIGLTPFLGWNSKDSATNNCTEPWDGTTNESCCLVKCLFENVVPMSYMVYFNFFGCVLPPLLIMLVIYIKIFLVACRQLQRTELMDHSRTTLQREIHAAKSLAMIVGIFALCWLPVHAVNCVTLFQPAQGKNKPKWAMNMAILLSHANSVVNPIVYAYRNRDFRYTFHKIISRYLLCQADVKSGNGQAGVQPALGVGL

Adenosine receptor A2b = target: T4, Adenosine receptor A2b (Homo sapiens, UniProt P29275); assay: Inhibition of 50 uM 5`-(N-ethylcarboxamido)adenosine induced cAMP production in CHO cell line expressing human Adenosine A2B receptor; type: cell-based
T4 sequence (P29275 whole entry): T3 sequence (whole entry)

Adenosine receptor A2a, sequence (P30543 whole entry): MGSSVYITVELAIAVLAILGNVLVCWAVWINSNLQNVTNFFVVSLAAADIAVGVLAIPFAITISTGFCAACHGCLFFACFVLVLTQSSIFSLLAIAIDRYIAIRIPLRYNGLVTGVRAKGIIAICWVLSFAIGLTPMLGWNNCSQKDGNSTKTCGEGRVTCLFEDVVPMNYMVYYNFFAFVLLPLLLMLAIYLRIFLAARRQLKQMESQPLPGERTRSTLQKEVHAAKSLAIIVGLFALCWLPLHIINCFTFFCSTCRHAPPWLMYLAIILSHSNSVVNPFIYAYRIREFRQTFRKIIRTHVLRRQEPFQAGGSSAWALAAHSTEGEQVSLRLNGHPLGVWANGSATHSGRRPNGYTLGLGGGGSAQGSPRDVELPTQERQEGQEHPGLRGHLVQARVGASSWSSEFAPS

SMILES | Ki (Adenosine receptor A2a) | Selectivity ratio [1] | Selectivity ratio [2] | Ki (Adenosine receptor A1) | Ki (Adenosine receptor A3) | inhibition [3] | IC50 (Adenosine receptor A2b)
COc1ccc(CC(=O)Nc2nc3ccc(Cl)cc3c3nc(-c4ccco4)nn23)cc1 | 28 nM | 1.9 | 2.1 | 30.2 nM | 14.4 nM | – | –
NCCCCCC(=O)Nc1nc2ccc(Cl)cc2c2nc(-c3ccco3)nn12 | 10.3 nM | 0.048 | 0.47 | 99.6 nM | 213 nM | 79% | –
CCCCC(=O)Nc1nc2ccc(Cl)cc2c2nc(-c3ccco3)nn12 | – | – | – | – | – | 79% | –
CC(C)(C)OC(=O)NCCC(=O)Nc1nc2ccc(Cl)cc2c2nc(-c3ccco3)nn12 | 7.58 nM | 1.1 | 4.6 | 31 nM | 6.71 nM | – | –
CC(C)(C)OC(=O)NCCCC(=O)Nc1nc2ccc(Cl)cc2c2nc(-c3ccco3)nn12 | 19.9 nM | 0.6 | 1.4 | 45.9 nM | – | 47% | –
CC(C(=O)Nc1nc2ccc(Cl)cc2c2nc(-c3ccco3)nn12)(c1ccccc1)c1ccccc1 | 453 nM | 2.3 | 4.6 | 890 nM | 194 nM | – | –
C[C@@H](N)C(=O)Nc1nc2ccc(Cl)cc2c2nc(-c3ccco3)nn12 | 29.7 nM | 0.026 | 0.17 | 193 nM | 1140 nM | – | –
CC(C)(C)OC(=O)NCCCCCC(=O)Nc1nc2ccc(Cl)cc2c2nc(-c3ccco3)nn12 | 33.7 nM | 1 | 1.6 | 53.8 nM | 33.8 nM | – | –
CC(NC(=O)OC(C)(C)C)C(=O)Nc1nc2ccc(Cl)cc2c2nc(-c3ccco3)nn12 (configuration not stated) | 6.65 nM | 0.08 | 0.66 | 54.7 nM | 82.9 nM | – | –
O=C(Nc1nc2ccc(Cl)cc2c2nc(-c3ccco3)nn12)C(c1ccccc1)c1ccccc1 | 12.1 nM | 21 | 220 | 129 nM | 0.586 nM | – | –
CCO/C(O)=C1\C(C)=NC(c2ccccc2)=C(C(=O)OCc2ccccc2)C1C#Cc1ccccc1 (configuration not stated) | > 100 nM | – | – | – | – | – | –
O=C(/C=C/c1ccccc1)Nc1nc2ccc(Cl)cc2c2nc(-c3ccco3)nn12 | 59.8 nM | 0.71 | 3.9 | 282 nM | 72.1 nM | 38% | –
O=C(CCc1ccccc1)Nc1nc2ccc(Cl)cc2c2nc(-c3ccco3)nn12 | – | – | – | – | 23.6 nM | 43% | –
O=C(Nc1nc2ccc(Cl)cc2c2nc(-c3ccco3)nn12)c1ccccc1 | – | – | – | – | – | 58% | –
Nc1nc2ccc(Cl)cc2c2nc(-c3ccc(Br)o3)nn12 | – | – | – | – | – | 16% | –
O=C(Cc1cccc(Cl)c1)Nc1nc2ccc(Cl)cc2c2nc(-c3ccco3)nn12 | 9.43 nM | 0.29 | 1.3 | 43 nM | 32.1 nM | 45% | –
CC(C)(C)OC(=O)Nc1nc2ccc(Cl)cc2c2nc(-c3ccco3)nn12 | – | – | – | – | – | 92% | 2410 nM
O=C(Cc1ccc(I)cc1)Nc1nc2ccc(Cl)cc2c2nc(-c3ccco3)nn12 | 9.93 nM | 0.16 | 0.22 | 13.8 nM | 62.9 nM | 42% | –
O=C(Nc1nc2ccc(Cl)cc2c2nc(-c3ccco3)nn12)c1cccc(I)c1 | – | – | – | – | – | 38% | –
COC(=O)CCCCCCC(=O)Nc1nc2ccc(Cl)cc2c2nc(-c3ccco3)nn12 | 7.43 nM | 0.13 | 0.79 | 46.6 nM | 59 nM | – | –
CC(C)(C)OC(=O)NCCCCCCC(=O)Nc1nc2ccc(Cl)cc2c2nc(-c3ccco3)nn12 | 11.1 nM | 0.21 | 0.71 | 38.2 nM | 53.7 nM | – | –

SMILES | Ki (Adenosine receptor A2a) | Selectivity ratio [1] | Selectivity ratio [2] | Ki (Adenosine receptor A1) | Ki (Adenosine receptor A3) | inhibition [3] | IC50 (Adenosine receptor A2b)
O=C(CCCCC(=O)OCc1ccccc1)Nc1nc2ccc(Cl)cc2c2nc(-c3ccco3)nn12 | 16.7 nM | 0.37 | 6.8 | 304 nM | 44.7 nM | – | –
CCC(=O)Nc1nc2ccc(Cl)cc2c2nc(-c3ccco3)nn12 | – | – | – | – | – | 66% | –
Clc1ccc2nc(NCc3ccccc3)n3nc(-c4ccco4)nc3c2c1 | 200 nM | 4.7 | 28 | – | 42.5 nM | 21% | –
O=C(Nc1nc2ccc(Cl)cc2c2nc(-c3ccc(Br)o3)nn12)c1ccccc1 | – | – | – | – | – | 0% | –
CCCn1c(=O)n2nc(-c3ccco3)nc2c2cc(Cl)ccc21 | – | – | – | – | – | 0% | –
C[C@@H](NC(=O)OC(C)(C)C)C(=O)Nc1nc2ccc(Cl)cc2c2nc(-c3ccco3)nn12 | 18.8 nM | 0.41 | 1 | 48.6 nM | 46.3 nM | – | –
CC(C)(C)OC(=O)NCCCCC(=O)Nc1nc2ccc(Cl)cc2c2nc(-c3ccco3)nn12 | 3.64 nM | 0.17 | 1.4 | 30.1 nM | 22 nM | – | –
Oc1nc2ccc(Cl)cc2c2nc(-c3ccco3)nn12 | – | – | – | – | – | 0% | –
COC(=O)CCC(=O)Nc1nc2ccc(Cl)cc2c2nc(-c3ccco3)nn12 | 28.8 nM | 0.52 | 1.3 | 71.8 nM | 55.1 nM | – | –
CC(C)(C)C(=O)Nc1nc2ccc(Cl)cc2c2nc(-c3ccco3)nn12 | – | – | – | – | – | 89% | 2400 nM
C[C@H](C(=O)Nc1nc2ccc(Cl)cc2c2nc(-c3ccco3)nn12)c1ccccc1 | 11.1 nM | 31 | 130 | 46.2 nM | 0.362 nM | – | –
CCO/C(O)=C1\C(C)=NC(c2ccccc2)=C(C(=O)OCc2ccc([N+](=O)[O-])cc2)C1C#Cc1ccccc1 (configuration not stated) | > 100 nM | – | – | > 100 nM | – | – | –
O=C(Cc1ccccc1I)Nc1nc2ccc(Cl)cc2c2nc(-c3ccco3)nn12 | 17.2 nM | < 1 | < 1 | 2300 nM | > 10000 nM | – | –
Nc1ccc(CC(=O)Nc2nc3ccc(Cl)cc3c3nc(-c4ccco4)nn23)cc1I | 10.4 nM | 0.21 | 4.4 | 217 nM | 49.3 nM | 23% | –
Nc1nc2ccc(Cl)cc2c2nc(-c3ccco3)nn12 [CGS-15943] | 3.3 nM | – | – | – | – | 100% | –
O=C(Cc1ccccc1)Nc1nc2ccc(Cl)cc2c2nc(-c3ccco3)nn12 | 10.3 nM | – | – | 52.7 nM | – | 71% | –
O=C(Cc1cccc(I)c1)Nc1nc2ccc(Cl)cc2c2nc(-c3ccco3)nn12 | 9.67 nM | 0.011 | 0.051 | 45.4 nM | 882 nM | – | –
CCCC(=O)Nc1nc2ccc(Cl)cc2c2nc(-c3ccco3)nn12 | – | – | – | – | – | 66% | –
C[C@H](N)C(=O)Nc1nc2ccc(Cl)cc2c2nc(-c3ccco3)nn12 | 143 nM | 0.12 | 0.33 | 390 nM | 1200 nM | – | –
C[C@@H](C(=O)Nc1nc2ccc(Cl)cc2c2nc(-c3ccco3)nn12)c1ccccc1 | 20.1 nM | – | – | 37.5 nM | 0.468 nM | – | –
NCCCCCCC(=O)Nc1nc2ccc(Cl)cc2c2nc(-c3ccco3)nn12 | 55.9 nM | 0.16 | 0.33 | 114 nM | 346 nM | 75% | –
